Values of other authors as cited in patent US7803400B2, “Artificial low-density lipoprotein carriers for transport of substances across the blood-brain barrier” (Blanchette Rockefeller Neurosciences Institute, priority 2002, dated 2010).
pKi: −log10 of the molar value. Each block holds one compound with its values, some of them ahead of it.

Assays:
PKCC = target: T1, PKCC (Homo sapiens, UniProt Q02156)
T1 sequence (Q02156 1-737): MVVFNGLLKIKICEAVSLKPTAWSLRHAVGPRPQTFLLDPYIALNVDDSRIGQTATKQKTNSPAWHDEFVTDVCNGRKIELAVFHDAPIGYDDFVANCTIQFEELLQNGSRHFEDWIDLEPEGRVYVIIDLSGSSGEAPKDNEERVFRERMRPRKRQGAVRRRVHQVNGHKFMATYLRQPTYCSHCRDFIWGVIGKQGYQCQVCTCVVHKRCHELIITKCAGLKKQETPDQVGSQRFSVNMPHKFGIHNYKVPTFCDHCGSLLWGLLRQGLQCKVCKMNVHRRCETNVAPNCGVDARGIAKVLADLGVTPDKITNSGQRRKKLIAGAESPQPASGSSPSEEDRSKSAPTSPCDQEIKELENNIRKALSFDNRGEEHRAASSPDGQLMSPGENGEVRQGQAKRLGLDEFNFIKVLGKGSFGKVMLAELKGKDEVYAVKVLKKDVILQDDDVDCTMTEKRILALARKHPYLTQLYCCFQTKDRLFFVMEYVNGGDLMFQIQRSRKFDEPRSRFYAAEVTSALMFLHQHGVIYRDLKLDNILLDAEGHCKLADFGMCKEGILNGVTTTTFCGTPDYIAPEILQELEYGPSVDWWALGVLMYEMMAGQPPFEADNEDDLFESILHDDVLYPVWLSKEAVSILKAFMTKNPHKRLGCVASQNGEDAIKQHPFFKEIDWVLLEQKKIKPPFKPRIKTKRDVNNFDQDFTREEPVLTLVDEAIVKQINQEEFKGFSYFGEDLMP

[1] = test system: cyclin dependent kinase 2 (Cdk2); settings: at 5 ng/ml
[2] = test system: murine leukemias and solid tumors

Compound: CCCCCCCC(=O)O[C@H]1/C(=C/C(=O)OC)C[C@H]2C[C@H](CO)OC(=O)C[C@H](O)CC3CCC[C@H](C[C@@H]4CCO[C@H](/C=C/C(C)(C)[C@]1(O)O2)O4)O3 [Analog 1]
potency relative to bryostatin-1 (PKC): about 100 times
pKi (PKC; read-out: PKC Affin): 9.60

concentration of maximal effect on PKC activation (PKCC): 100 nM
Compound: CCCCCC1CC1CC1CC1CCCCCCCC(=O)O (stereo not drawn) [DCP-LA, 2-[(2-pentylcyclopropyl)methyl]cyclopropaneoctanoic acid]

Compound: Gnidimacrin
inhibition of Cdk2 [1]: 100%
concentrations of potent antitumor activity [2]: 0.1 to 1 nM
concentration at which it acts as PKC activator (PKC in K562 cells): ≈ 3 nM
